Measured values: ChEMBL document CHEMBL4219090, “Synthesis and biological evaluation of polyhydroxylated oxindole derivatives as potential antileishmanial agent” (Bioorg Med Chem Lett, 2018)
Activity calls are given as the source filed them. The rule behind the calls is not given here.

How the values were obtained:
Leishmania donovani [1] = assay: Antileishmanial activity against Leishmania donovani MHOM/IN/1983/AG83 promastigotes transformed from splenic intracellular amastigotes of infected BALB/c mouse assessed as parasite survival at 16 uM after 48 hrs by MTT assay (reference value: 100%); format: functional; details: MHOM/IN/1983/AG83, 48 h
Leishmania donovani [2] = assay: Antileishmanial activity against Leishmania donovani MHOM/IN/1983/AG83 promastigotes transformed from splenic intracellular amastigotes of infected BALB/c mouse assessed as parasite survival at 32 uM after 48 hrs by MTT assay (reference value: 100%); format: functional; details: MHOM/IN/1983/AG83, 48 h
Leishmania donovani [3] = assay: Antileishmanial activity against Leishmania donovani MHOM/IN/1983/AG83 promastigotes transformed from splenic intracellular amastigotes of infected BALB/c mouse after 48 hrs by MTT assay; format: functional, organism-based; details: MHOM/IN/1983/AG83, 48 h
Leishmania donovani [4] = assay: Antileishmanial activity against Leishmania donovani MHOM/IN/1983/AG83 promastigotes transformed from splenic intracellular amastigotes of infected BALB/c mouse assessed as parasite survival at 8 uM after 48 hrs by MTT assay (reference value: 100%); format: functional; details: MHOM/IN/1983/AG83, 48 h
Leishmania donovani [5] = assay: Induction of ROS generation in Leishmania donovani MHOM/IN/1983/AG83 promastigotes transformed from splenic intracellular amastigotes of infected BALB/c mouse at IC50 measured at 6 hrs by H2DCFDA probe-based flow cytometric analysis relative to control; format: functional
Leishmania donovani [6] = assay: Induction of apoptosis in Leishmania donovani MHOM/IN/1983/AG83 promastigotes transformed from splenic intracellular amastigotes of infected BALB/c mouse assessed as accumulation of lipid droplets in cytoplasm after 48 hrs by Nile red staining-based confocal laser scanning microscopic analysis; format: functional, organism-based
Leishmania donovani [7] = assay: Induction of apoptosis in Leishmania donovani MHOM/IN/1983/AG83 promastigotes transformed from splenic intracellular amastigotes of infected BALB/c mouse assessed as nuclei blebbing after 48 hrs by DAPI staining-based confocal laser scanning microscopic analysis; format: functional, organism-based
Leishmania donovani [8] = assay: Induction of apoptosis in Leishmania donovani MHOM/IN/1983/AG83 promastigotes transformed from splenic intracellular amastigotes of infected BALB/c mouse assessed as viable cells at 15 uM after 24 hrs by Annexin V-PE/7-AAD staining-based flow cytometric analysis relative to control; format: functional
Leishmania donovani [9] = assay: Cell cycle arrest in Leishmania donovani MHOM/IN/1983/AG83 promastigotes transformed from splenic intracellular amastigotes of infected BALB/c mouse assessed as accumulation at sub-G0/G1 phase at IC50 after 48 hrs by propidium iodide staining-based flow cytometric analysis (reference value: 2.61 +/- 0.33%); format: functional
Leishmania donovani [10] = assay: Cell cycle arrest in Leishmania donovani MHOM/IN/1983/AG83 promastigotes transformed from splenic intracellular amastigotes of infected BALB/c mouse assessed as accumulation at G0/G1 phase at IC50 after 48 hrs by propidium iodide staining-based flow cytometric analysis (reference value: 81.06%); format: functional
[11] = Cytotoxicity against PHA-stimulated mouse splenocytes assessed as cell survival at 16 uM after 96 hrs by MTT assay (reference value: 100%); format: cell-based, Splenocyte; details: read-out: Survival
Leishmania donovani [12] = assay: Induction of apoptosis in Leishmania donovani MHOM/IN/1983/AG83 promastigotes transformed from splenic intracellular amastigotes of infected BALB/c mouse assessed as early apoptotic cells at 15 uM after 48 hrs by Annexin V-PE/7-AAD staining-based flow cytometric analysis (reference value: 10.98 +/- 1.22%); format: functional
Leishmania donovani [13] = assay: Antileishmanial activity against Leishmania donovani MHOM/IN/1983/AG83 amastigotes infected in BALB/c mouse peritoneal macrophages at 1 uM after 48 hrs by phase contrast microscopic analysis relative to control; format: functional
Leishmania donovani [14] = assay: Induction of apoptosis in Leishmania donovani MHOM/IN/1983/AG83 promastigotes transformed from splenic intracellular amastigotes of infected BALB/c mouse assessed as late apoptotic cells at 15 uM after 24 hrs by Annexin V-PE/7-AAD staining-based flow cytometric analysis relative to control; format: functional
Leishmania donovani [15] = assay: Induction of apoptosis in Leishmania donovani MHOM/IN/1983/AG83 promastigotes transformed from splenic intracellular amastigotes of infected BALB/c mouse assessed as early apoptotic cells at 15 uM by Annexin V-PE/7-AAD staining-based flow cytometric analysis; format: functional, organism-based; details: TDE = time-dependent effect
[16] = Cytotoxicity against PHA-stimulated mouse splenocytes assessed as cell survival at 128 uM after 96 hrs by MTT assay (reference value: 100%); format: cell-based, Splenocyte; details: read-out: Survival
Leishmania donovani [17] = assay: Induction of apoptosis in Leishmania donovani MHOM/IN/1983/AG83 promastigotes transformed from splenic intracellular amastigotes of infected BALB/c mouse assessed as late apoptotic cells at 15 uM by Annexin V-PE/7-AAD staining-based flow cytometric analysis; format: functional, organism-based; details: TDE = time-dependent effect
Leishmania donovani [18] = assay: Antileishmanial activity against Leishmania donovani MHOM/IN/1983/AG83 promastigotes transformed from splenic intracellular amastigotes of infected BALB/c mouse assessed as parasite survival at 128 uM after 48 hrs by MTT assay (reference value: 100%); format: functional; details: MHOM/IN/1983/AG83, 48 h
Leishmania donovani [19] = assay: Induction of apoptosis in Leishmania donovani MHOM/IN/1983/AG83 promastigotes transformed from splenic intracellular amastigotes of infected BALB/c mouse assessed as necrotic cells at 15 uM after 24 hrs by Annexin V-PE/7-AAD staining-based flow cytometric analysis relative to control; format: functional
Leishmania donovani [20] = assay: Induction of apoptosis in Leishmania donovani MHOM/IN/1983/AG83 promastigotes transformed from splenic intracellular amastigotes of infected BALB/c mouse assessed as late apoptotic cells at 15 uM after 48 hrs by Annexin V-PE/7-AAD staining-based flow cytometric analysis (reference value: 2.55 +/- 0.49%); format: functional
Leishmania donovani [21] = assay: Induction of apoptosis in Leishmania donovani MHOM/IN/1983/AG83 promastigotes transformed from splenic intracellular amastigotes of infected BALB/c mouse assessed as viable cells at 15 uM after 48 hrs by Annexin V-PE/7-AAD staining-based flow cytometric analysis (reference value: 84.97%); format: functional
Leishmania donovani [22] = assay: Induction of nitric oxide generation in Leishmania donovani MHOM/IN/1983/AG83 amastigotes infected in BALB/c mouse peritoneal macrophages at IC50 by Griess reagent based analysis relative to control; format: functional
[23] = Cytotoxicity against PHA-stimulated mouse splenocytes assessed as cell survival at 8 uM after 96 hrs by MTT assay (reference value: 100%); format: cell-based, Splenocyte; details: read-out: Survival
Leishmania donovani [24] = assay: Induction of apoptosis in Leishmania donovani MHOM/IN/1983/AG83 promastigotes transformed from splenic intracellular amastigotes of infected BALB/c mouse assessed as early apoptotic cells at 15 uM after 24 hrs by Annexin V-PE/7-AAD staining-based flow cytometric analysis relative to control; format: functional
[25] = Cytotoxicity against PHA-stimulated mouse splenocytes assessed as cell survival at 64 uM after 96 hrs by MTT assay (reference value: 100%); format: cell-based, Splenocyte; details: read-out: Survival
Leishmania donovani [26] = assay: Induction of apoptosis in Leishmania donovani MHOM/IN/1983/AG83 promastigotes transformed from splenic intracellular amastigotes of infected BALB/c mouse assessed as chromatin condensation after 48 hrs by DAPI staining-based confocal laser scanning microscopic analysis; format: functional, organism-based
[27] = Cytotoxicity against PHA-stimulated mouse splenocytes assessed as cell survival at 32 uM after 96 hrs by MTT assay (reference value: 100%); format: cell-based, Splenocyte; details: read-out: Survival
Leishmania donovani [28] = assay: Antileishmanial activity against Leishmania donovani MHOM/IN/1983/AG83 promastigotes transformed from splenic intracellular amastigotes of infected BALB/c mouse assessed as parasite survival at 64 uM after 48 hrs by MTT assay (reference value: 100%); format: functional; details: MHOM/IN/1983/AG83, 48 h
Leishmania donovani [29] = assay: Cell cycle arrest in Leishmania donovani MHOM/IN/1983/AG83 promastigotes transformed from splenic intracellular amastigotes of infected BALB/c mouse assessed as accumulation at sub-G0/G1 phase at IC50 after 24 hrs by propidium iodide staining-based flow cytometric analysis (reference value: 2.61 +/- 0.33%); format: functional
Leishmania donovani [30] = assay: Induction of apoptosis in Leishmania donovani MHOM/IN/1983/AG83 promastigotes transformed from splenic intracellular amastigotes of infected BALB/c mouse assessed as necrotic cells at 15 uM after 48 hrs by Annexin V-PE/7-AAD staining-based flow cytometric analysis (reference value: 1.51%); format: functional
Leishmania donovani [31] = assay: Cell cycle arrest in Leishmania donovani MHOM/IN/1983/AG83 promastigotes transformed from splenic intracellular amastigotes of infected BALB/c mouse assessed as accumulation at sub-G0/G1 phase at IC50 by propidium iodide staining-based flow cytometric analysis; format: functional, organism-based; details: TDE = time-dependent effect
Leishmania donovani [32] = assay: Induction of ROS generation in Leishmania donovani MHOM/IN/1983/AG83 promastigotes transformed from splenic intracellular amastigotes of infected BALB/c mouse at IC50 by H2DCFDA probe-based flow cytometric analysis; format: functional, organism-based; details: TDE = time-dependent effect
Leishmania donovani [33] = assay: Antileishmanial activity against Leishmania donovani MHOM/IN/1983/AG83 promastigotes transformed from splenic intracellular amastigotes of infected BALB/c mouse after 48 hrs by […]; format: functional, organism-based; details: MHOM/IN/1983/AG83, 48 h

## COc1ccc(CN2C(=O)C(=C(c3ccc(O)cc3)c3ccc(O)cc3)c3ccccc32)cc1
Leishmania donovani [1]
  survival at 16 µM: 81%
Leishmania donovani [2]
  survival at 32 µM: 66.1%
Leishmania donovani [3]
  IC50: 47.2 µM
Leishmania donovani [4]
  survival at 8 µM: 96.4%

## O=C1C(=C(c2ccc(O)cc2)c2ccc(O)cc2)c2cc(/C=C/c3ccc(O)c(O)c3)ccc2N1Cc1ccc(O)cc1
Leishmania donovani [5]
  fold change (FC): >3
Leishmania donovani [6]
  Activity: Active
Leishmania donovani [7]
  Activity: Active
Leishmania donovani [8]
  Activity: 45.2%
Leishmania donovani [9]
  Activity: 8.86%
Leishmania donovani [10]
  Activity: 71.37%
[11]
  viability at 96 h, 16 µM: 92.3%
Leishmania donovani [1]
  survival at 16 µM: 46.7%
Leishmania donovani [12]
  Activity: 42.08%
Leishmania donovani [2]
  survival at 32 µM: 31.6%
Leishmania donovani [13]
  Activity: 50%
Leishmania donovani [14]
  Activity: 14.76%
Leishmania donovani [15]
  Activity: Tde
[16]
  viability at 96 h, 128 µM: 85.2%
Leishmania donovani [17]
  Activity: Tde
Leishmania donovani [18]
  survival at 128 µM: 5.42%
Leishmania donovani [19]
  Activity: 5.03%
Leishmania donovani [20]
  Activity: 15.39%
Leishmania donovani [21]
  Activity: 38.43%
Leishmania donovani [22]
  fold change (FC): 3
[23]
  viability at 96 h, 8 µM: 96.6%
Leishmania donovani [3]
  IC50: 15 µM
Leishmania donovani [24]
  Activity: 35.01%
[25]
  viability at 96 h, 64 µM: 87.3%
Leishmania donovani [4]
  survival at 8 µM: 96.2%
Leishmania donovani [26]
  Activity: Active
[27]
  viability at 96 h, 32 µM: 90.5%
Leishmania donovani [28]
  survival at 64 µM: 17.9%
Leishmania donovani [29]
  Activity: 6.79 - 6.97%
Leishmania donovani [30]
  Activity: 4.09%
Leishmania donovani [31]
  Activity: Tde
Leishmania donovani [32]
  Activity: Tde

## COc1ccc(CN2C(=O)C(=C(c3ccc(O)cc3)c3ccc(O)cc3)c3cc(/C=C/c4ccc(C)c(C)c4)ccc32)cc1
Leishmania donovani [1]
  survival at 16 µM: 95.5%
Leishmania donovani [2]
  survival at 32 µM: 93.7%
Leishmania donovani [3]
  IC50: 225 µM
Leishmania donovani [4]
  survival at 8 µM: 97.2%

## O=C1C(=C(c2ccc(O)cc2)c2ccc(O)cc2)c2ccccc2N1Cc1ccc(O)cc1
Leishmania donovani [1]
  survival at 16 µM: 96.7%
Leishmania donovani [2]
  survival at 32 µM: 92%
Leishmania donovani [3]
  IC50: 200 µM
Leishmania donovani [4]
  survival at 8 µM: 98.3%

## COc1ccc(CN2C(=O)C(=C(c3ccc(O)cc3)c3ccc(O)cc3)c3cc(/C=C/c4ccc(OC)c(OC)c4)ccc32)cc1
Leishmania donovani [1]
  survival at 16 µM: 70.6%
Leishmania donovani [2]
  survival at 32 µM: 53.7%
Leishmania donovani [3]
  IC50: 31 µM
Leishmania donovani [4]
  survival at 8 µM: 79.2%

## COc1ccc(CN2C(=O)C(=C(c3ccc(O)cc3)c3ccc(O)cc3)c3cc(/C=C/c4ccc(F)c(F)c4)ccc32)cc1
Leishmania donovani [1]
  survival at 16 µM: 96%
Leishmania donovani [2]
  survival at 32 µM: 93.2%
Leishmania donovani [3]
  IC50: 220 µM
Leishmania donovani [4]
  survival at 8 µM: 97.5%

## CCCCCCCCCCCCCCCCOP(=O)([O-])OCC[N+](C)(C)C [MILTEFOSINE]
Leishmania donovani [33]
  IC50: 21 µM
Leishmania donovani [3]
  IC50: 21 µM
